{"source": "patent US20260108513A1", "about": "(Pfizer Inc., priority 2022, published 2026)", "system": "mCRPC patients", "experiment": "TALAPRO-2 Part 2: safety, adverse events and supportive care (safety population)", "format": "in vivo, human", "conditions": "talazoparib+enzalutamide group", "excerpt": "This population was the primary population for evaluating safety.\nTreatment-emergent is defined as the time between the first dose of study treatment to 28 days after the last dose of the last study treatment, or before any new antineoplastic therapy, whichever occurs first."}
{"smiles": "Cn1ncnc1[C@H]1c2n[nH]c(=O)c3cc(F)cc(c23)N[C@@H]1c1ccc(F)cc1", "note": "[talazoparib, (8S,9R)-5-fluoro-8-(4-fluorophenyl)-9-(1-methyl-1H-1,2,4-triazol-5-yl)-8,9-dihydro-2H-pyrido[4,3,2-de]phthalazin-3(7H)-one]", "values": [{"measurement": "median time to onset of first G≥3 anemia", "result": 3.3, "unit": "months"}, {"measurement": "recurrent G3-4 anemia", "result": 20.6, "unit": "%"}]}
